The source of these data is US5096923A, “Novel squalene synthetase inhibitors” (Merck & Co., Inc., priority 1990, dated 1992).

In brackets after ≈: the same amount, converted by molar mass. Bounds are passed on as bounds.

One experiment deals with A. fumigatus MF4839. Nature of the experiment: Antifungal microtiter inhibitor dilution assay (filamentous fungi), A. fumigatus. The experiment is classed as cell-based. The following applies: Aspergillus fumigatus, 42 hours, 28° C., read-out: Minimum Inhibitory Concentration. The protocol: (§1) The compounds are particularly active towards filamentous fungi and yeasts including Candida albicans and Crypt neoformans. The sensitivity of filamentous fungi and yeast was determined using inhibitor dilution assays in microtiter format. The compounds were dissolved in DMSO at 2 mg/ml and serially diluted in 0.1M phosphate buffer, pH 7.0 in the microtiter dish from 100 to 0.006 μg/ml. A standardized spore suspension for testing the filamentous fungi was prepared by inoculating Antibiotic Medium #3 containing 1.5% agar with spores such that 1.5×10^3 colony forming units were added per well. The microtiter wells were filled with 50 μl of buffer containing compound and 50 μl of inoculated medium. The sensitivity of yeasts was determined by inoculating yeast nitrogen base containing 1% dextrose (YNB/G) with aliquots of an overnight yeast culture grown in yeast morphology (YM) media at 35° C. and diluting in YNB/G to yield a final concentration of 1.5-7.5×10^3 colony forming units/well. One hundred fifty μl of inoculated media was added per well. To test the sensitivity of yeast, compound was solubilized in 10 percent aqueous DMSO at 2.56 mg/ml. The compound was diluted serially in YNB/G from 128 to 0.06 μg/ml. The wells were filled with 150 μl of drug containing media. […]

For another experiment, the system named is Coch. miyabeanus MF4626. Nature of the experiment: Antifungal microtiter inhibitor dilution assay (filamentous fungi), Coch. miyabeanus. Particulars: Bipolaris oryzae, MF4626, 42 h, read-out: Minimum Inhibitory Concentration. The experiment is classed as cell-based. As for the experimental part:
as §1

The test system of another experiment is A. flavus MF383. Nature of the experiment: Antifungal microtiter inhibitor dilution assay (filamentous fungi), A. flavus. The experiment is classed as cell-based. The following applies: Aspergillus flavus, 42 hours, 28° C., read-out: Minimum Inhibitory Concentration. As for the experimental part:
as §1

In another experiment the test system is Pen. italicum MF2819. Nature of the experiment: Antifungal microtiter inhibitor dilution assay (filamentous fungi), Pen. italicum. The experiment is classed as cell-based. Particulars: Penicillium italicum, 42 hours, 28° C., read-out: Minimum Inhibitory Concentration. The protocol: as §1
For a further experiment, the target named is T1, Squalene Synthetase (Rattus norvegicus, UniProt Q02769).
T1 construct: The livers from these rats were homogenized in 5 volumes (ml/g) of ice cold 50 mM HEPES; from tissue; host or cells: rat liver microsomes (male Charles River CD rats fed 0.1% lovastatin for 4 days)
T1 sequence (Q02769 1-416): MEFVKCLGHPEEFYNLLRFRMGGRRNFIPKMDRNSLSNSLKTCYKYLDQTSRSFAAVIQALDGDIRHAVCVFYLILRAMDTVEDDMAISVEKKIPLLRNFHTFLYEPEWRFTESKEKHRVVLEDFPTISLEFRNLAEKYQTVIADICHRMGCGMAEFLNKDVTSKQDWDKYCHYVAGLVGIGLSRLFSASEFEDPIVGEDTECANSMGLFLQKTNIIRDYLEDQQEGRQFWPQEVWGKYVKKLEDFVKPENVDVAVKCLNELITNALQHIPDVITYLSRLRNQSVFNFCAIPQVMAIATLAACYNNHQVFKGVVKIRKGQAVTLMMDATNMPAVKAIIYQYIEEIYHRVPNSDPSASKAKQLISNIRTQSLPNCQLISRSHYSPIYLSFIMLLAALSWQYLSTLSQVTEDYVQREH
Nature of the experiment: Squalene synthetase assay (rat liver microsomes, [4-14C]farnesyl-pyrophosphate). The experiment is classed as biochemical. The following applies: 30° C., 20 minutes, read-out: Squalene Synthetase ID50.

Another experiment deals with C. tropicalis MY1012. Put plainly: Antifungal microtiter inhibitor dilution assay (yeast), C. tropicalis. The experiment is classed as cell-based. The following applies: Candida tropicalis, 24 hours, 28° C., read-out: Minimum Inhibitory Concentration. As for the experimental part:
as §1

The next experiment concerns C. albicans MY1055. Nature of the experiment: Antifungal microtiter inhibitor dilution assay (yeast), C. albicans. The following applies: Candida albicans, 24 hours, 28° C., read-out: Minimum Inhibitory Concentration. The experiment is classed as cell-based. The protocol:
as §1

Another experiment has as its system Fus. oxysporum MF4014. Put plainly: Antifungal microtiter inhibitor dilution assay (filamentous fungi), Fus. oxysporum. The experiment is classed as cell-based. The following applies: Fusarium oxysporum, 42 hours, 28° C., read-out: Minimum Inhibitory Concentration. As for the experimental part: as §1
The test system of a further experiment is A. niger MF442. Put plainly: Antifungal microtiter inhibitor dilution assay (filamentous fungi), A. niger. The experiment is classed as cell-based. The following applies: Aspergillus niger, 42 hours, 28° C., read-out: Minimum Inhibitory Concentration. The protocol:
as §1

The test system of the next experiment is Crypt. neoformans MY1051. Put plainly: Antifungal microtiter inhibitor dilution assay (yeast), Crypt. neoformans. The experiment is classed as cell-based. Particulars: Cryptococcus neoformans, 24 hours, 28° C., read-out: Minimum Inhibitory Concentration. The protocol: as §1
Another experiment concerns C. parapsilosis MY1010. Nature of the experiment: Antifungal microtiter inhibitor dilution assay (yeast), C. parapsilosis. The experiment is classed as cell-based. The following applies: Lodderomyces parapsilosis, 24 hours, 28° C., read-out: Minimum Inhibitory Concentration. The protocol: as §1

Procedure for Squalene Synthetase: The intrinsic squalene synthetase inhibitory activity of representative compounds of this invention was measured by the standard in vitro protocol described below:
Male, Charles River CD rats (120 to 150 g) were fed a diet containing 0.1% lovastatin for 4 days. The livers from these rats were homogenized in 5 volumes (ml/g) of ice cold 50 mM HEPES (4-(2 -hydroxyethyl)-1-piperazine-ethanesulfonic acid), 5 mM EDTA(ethylenediaminetetraacetic acid) pH 7.5 with a Potter-Elvehjem type tissue grinder. The homogenate was centrifuged twice at 20,000×g for 15 minutes at 4° C., discarding the pellet each time. The supernatant was then centrifuged at 100,000×g for 1 hour at 4° C. The resulting microsomal pellet was resuspended in a volume of the above homogenizing buffer equal to one-fifth the volume of the original homogenate. This microsomal preparation has a protein concentration of about 7 mg/ml. The microsomal suspensions were stored in aliquots at -70° C. Squalene synthetase activity in these aliquots is stable for at least several months.
Prenyl transferase was purified to use in the enzymatic synthesis of radiolabelled farnesyl pyrophosphate. Prenyl transferase was assayed by the method of Rilling (Methods in Enzymology 110, 125-129 (1985)) and a unit of activity is defined as the amount of enzyme that will produce 1 μmole of farnesyl pyrophosphate per minute at 30° C. in the standard assay. […]

Take `C=C(CCC12OC(C(=O)OC)C(O)(C(=O)OC)C(C(=O)OC)(O1)C(OC(=O)C=CC(C)CC(C)CC)C2O)C(OC(C)=O)C(C)Cc1ccccc1` (centres unmarked) [Compound B]: the MIC with A. fumigatus MF4839 came to 6.2 µg/mL (≈ 8.46 µM); with Coch. miyabeanus MF4626, 1.6 µg/mL (≈ 2.18 µM); in the experiment on A. flavus MF383 it was 6.2 µg/mL (≈ 8.46 µM); in the experiment with Pen. italicum MF2819, 6.2 µg/mL (≈ 8.46 µM); in the experiment on C. tropicalis MY1012, 4 µg/mL (≈ 5.46 µM); in the experiment on C. albicans MY1055, 8 µg/mL (≈ 10.9 µM). Further, the MIC was more than 100 µg/mL with Fus. oxysporum MF4014, 25 µg/mL (≈ 34.1 µM) with A. niger MF442, 1 µg/mL (≈ 1.36 µM) in the experiment with Crypt. neoformans MY1051 and 8 µg/mL (≈ 10.9 µM) in the experiment on C. parapsilosis MY1010. For the same molecule, on Squalene Synthetase, the IC50 came out at 5 µM.
